Columns and labels:
dopamine receptor DopEcR [1] = biological target: dopamine receptor DopEcR (Helicoverpa armigera, UniProt A0A386QW71); assay: biochemical
dopamine receptor DopEcR [2] = biological target: T1, dopamine receptor DopEcR (Helicoverpa armigera, UniProt A0A386QW71); assay: saturation binding with isolated receptor, […] enzyme immunoassay; also displacement of DA (Ki […])
T1 construct: DopEcR-GFP-His (GenBank MG596302), isolated from Sf9 cells
T1 sequence (A0A386QW71 1-343): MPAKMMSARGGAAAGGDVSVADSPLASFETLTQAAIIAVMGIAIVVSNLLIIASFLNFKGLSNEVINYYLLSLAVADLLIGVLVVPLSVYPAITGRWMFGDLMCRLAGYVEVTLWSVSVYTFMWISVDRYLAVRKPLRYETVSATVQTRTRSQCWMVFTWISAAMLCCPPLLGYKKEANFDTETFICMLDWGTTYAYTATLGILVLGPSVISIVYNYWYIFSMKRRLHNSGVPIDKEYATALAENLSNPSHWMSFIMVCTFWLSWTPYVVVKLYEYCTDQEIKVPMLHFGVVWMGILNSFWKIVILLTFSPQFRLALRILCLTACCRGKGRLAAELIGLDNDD

ErGPCR-2 = biological target: T2, ErGPCR-2 (Helicoverpa armigera, UniProt A0A0U1ZWU3); assay: saturation binding with isolated receptor, […] enzyme immunoassay
T2 construct: ErGPCR-2-GFP-His, 7TM region and added signal peptide (GenBank AKA95280.1), isolated from Sf9 cells
T2 sequence (A0A0U1ZWU3 430-703 limits assumed): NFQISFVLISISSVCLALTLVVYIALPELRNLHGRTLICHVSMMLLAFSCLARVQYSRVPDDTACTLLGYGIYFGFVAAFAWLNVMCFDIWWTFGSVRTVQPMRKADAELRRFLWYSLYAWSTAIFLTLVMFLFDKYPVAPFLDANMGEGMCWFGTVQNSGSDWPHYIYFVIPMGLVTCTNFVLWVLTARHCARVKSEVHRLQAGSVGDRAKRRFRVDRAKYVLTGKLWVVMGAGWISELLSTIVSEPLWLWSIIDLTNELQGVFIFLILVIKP

dopamine receptor DopEcR [3] = biological target: T3, dopamine receptor DopEcR (Helicoverpa armigera, UniProt A0A386QW71, T113A/W160A/Y109A/Y68A); assay: saturation binding with isolated mutant receptor, […] enzyme immunoassay (lower Bmax)
T3 construct: DopEcR-M-GFP-His, isolated from Sf9 cells

Kd (dopamine receptor DopEcR [1])	SMILES	Kd (dopamine receptor DopEcR [2])	Kd (ErGPCR-2)	Kd (dopamine receptor DopEcR [3])
448 ± 101 nM	NCCc1ccc(O)c(O)c1 [DA, dopamine]			
	CC(C)(O)CC[C@@H](O)[C@](C)(O)[C@H]1CC[C@@]2(O)C3=CC(=O)[C@@H]4C[C@@H](O)[C@@H](O)C[C@]4(C)[C@H]3CC[C@]12C [20E, 20-hydroxyecdysone]	18 ± 3 nM	23.3 ± 3.3 nM	20.5 ± 1.98 nM

Source: paper PMC6693746 (PLoS Genetics, 2019)
